The subject of data set [1] is primary AML cell line AML1. Briefly: Anti-leukemic activity, Annexin V/7-AAD flow cytometry. Type of data set: cell-based, human. As to conditions: 24 h of drug exposure, read-out: AML#1 (EC50). On the procedure: (§1) The newly synthesized triazole derivatives of melampomagnolide B were screened for anti-leukemic activity against M9 ENL1 and primary AML cell lines; the latter were obtained with informed consent from human patients. Evaluations were performed after 24 h of drug exposure using flow cytometric analysis by labeling with Annexin V and 7-aminoactinomycin D (7-AAD) to delineate apoptotic cell populations. In all experiments PTL was included as a reference control.

Data set [2] has as its system primary AML cell line AML2. The description is as above. The class given is cell-based, human. The conditions noted are these: 24 h of drug exposure, read-out: AML#2 (EC50). On the procedure: as §1
Another data set relates to M9 ENL1 cell line. The description is as above. Type of data set: cell-based. On the procedure:
as §1

A short description of another data set: Water solubility. The conditions noted are these: fumarate salt vs free base. The class given is physicochemical.
[3] abbreviates: 24 h of drug exposure, read-out: M9ENL1 (EC50).
The mark [4] stands for this setting: M9-ENL1, 24 h, 24 h of drug exposure, read-out: M9ENL1 (EC50).

Consider 12 compounds from patent publication US10428082B2, “Triazole derivatives of melampomagnolide B and methods of use thereof” (BioVentures, LLC, priority 2016, dated 2019).

Like-named read-outs stand apart in the source and are kept apart here.

By EC50 is commonly meant the concentration at which the effect is half-maximal. Turning to `C/C1=C\CC[C@@]2(C)O[C@@H]2[C@H]2OC(=O)[C@H](CN(C)C)[C@@H]2CC1` [DMAPT, reference compound], the concentration for a half-maximal effect (EC50) in data set [1] was determined as 14.7 µM; in data set [2] it was 11.3 µM; in the data set with M9 ENL1 cell line (setting [3]), 6000 nM.

Regarding `C=C1C(=O)O[C@H]2[C@H]1CC/C(Cn1cc(CO)nn1)=C\CC[C@@]1(C)O[C@@H]21` [JVM 3-75], the EC50 in the data set with M9 ENL1 cell line (setting [3]) was 38000 nM.

`C=C1C(=O)O[C@H]2[C@H]1CC/C(Cn1cc(COC(=O)c3ccccc3)nn1)=C\CC[C@@]1(C)O[C@@H]21` [JVM 3-76]: the EC50 in the data set with M9 ENL1 cell line (setting [3]) was found to be 11000 nM.

As for `C=C1C(=O)O[C@H]2[C@H]1CC/C(Cn1cc(CCCC)nn1)=C\CC[C@@]1(C)O[C@@H]21` [JVM 4-20], the EC50 with M9 ENL1 cell line (setting [3]) was determined as 4300 nM.

`C=C1C(=O)O[C@H]2[C@H]1CC/C(Cn1cc(-c3ccc(F)c(C)c3)nn1)=C\CC[C@@]1(C)O[C@@H]21` [JVM 4-27, (1aR,7aS,10aS,10bS,E)-5-((4-(4-Fluoro-3-methylphenyl)-1H-1,2,3-triazol-1-yl)methyl)-1a-methyl-8-methylene-2,3,6,7,7a,8,10a,10b-octahydrooxireno[2′,3′:9,10]cyclodeca[1,2-b]furan-9(1aH)-one]: the EC50 was 1.3 µM in data set [1] (Homo sapiens, AML1, 24 h); 1.2 µM in data set [2] (Homo sapiens, 24 h); 1200 nM in the data set on M9 ENL1 cell line (setting [4]).

On to `CN(C)CC1C(=O)O[C@H]2[C@H]1CC/C(Cn1cc(-c3cc(C(F)(F)F)cc(C(F)(F)F)c3)nn1)=C\CC[C@@]1(C)O[C@@H]21` (stereo partly drawn) [JVM 4-29B], for which the EC50 stood at 1.1 µM in data set [1] (Homo sapiens, AML1, 24 h); 2.3 µM in data set [2] (Homo sapiens, 24 h); 1900 nM in the data set on M9 ENL1 cell line (setting [4]).

For `CN(C)CC1C(=O)O[C@H]2[C@H]1CC/C(Cn1cc(-c3cc(C(F)(F)F)cc(C(F)(F)F)c3)nn1)=C\CC[C@@]1(C)O[C@@H]21` (stereo partly drawn) [JVM 4-29C], the figures for the EC50 (in data set [1]; in data set [2]; in the data set on M9 ENL1 cell line (setting [3])) were 1 µM, 2.9 µM and 1700 nM, respectively. Moreover, the “water solubility compared with free base form” value in “Water solubility” is given as “more water soluble than the free base form”.

In the case of `C=C1C(=O)O[C@H]2[C@H]1CC/C(Cn1cc(CCCCl)nn1)=C\CC[C@@]1(C)O[C@@H]21` [JVM 4-31], the EC50 with M9 ENL1 cell line (setting [3]) stood at 3800 nM.

Regarding `C#Cc1cccc(-c2cn(C/C3=C/CC[C@@]4(C)O[C@H]4[C@H]4OC(=O)C(=C)[C@@H]4CC3)nn2)c1` [JVM 4-41, (1aR,7aS,10aS,10bS,E)-5-((4-(3-Ethynylphenyl)-1H-1,2,3-triazol-1-yl)methyl)-1a-methyl-8-methylene-2,3,6,7,7a,8,10a,10b-octahydrooxireno[2′,3′:9,10]cyclodeca[1,2-b]furan-9(1aH)-one], the EC50 was determined as 200 nM with M9 ENL1 cell line (setting [4]) and 200 nM in the data set with M9 ENL1 cell line (M9-ENL1, text value in nM, read-out: EC50 against the M9 ENL cell line). Also, in the data set on M9 ENL1 cell line (M9 ENL1 cells), the “fold more potent than parthenolide (PTL)” value is 26 fold.

Regarding `C=C1C(=O)O[C@H]2[C@H]1CC/C(Cn1cc(-c3ccccn3)nn1)=C\CC[C@@]1(C)O[C@@H]21` [JVM 4-47, (1aR,7aS,10aS,10bS,E)-1a-Methyl-8-methylene-5-((4-(pyridin-2-yl)-1H-1,2,3-triazol-1-yl)methyl)-2,3,6,7,7a,8,10a,10b-octahydrooxireno[2′,3′:9,10]cyclodeca[1,2-b]furan-9(1aH)-one], the EC50 is 7.9 µM in data set [1] (Homo sapiens, AML1, 24 h) and 3200 nM with M9 ENL1 cell line (setting [4]).

As for `C=C1C(=O)O[C@H]2[C@H]1CC/C(Cn1cc(-c3cc(F)cc(F)c3)nn1)=C\CC[C@@]1(C)O[C@@H]21` [JVM 4-48, (1aR,7aS,10aS,10bS,E)-5-((4-(3,5-Difluorophenyl)-1H-1,2,3-triazol-1-yl)methyl)-1a-methyl-8-methylene-2,3,6,7,7a,8,10a,10b-oetahydrooxireno[2′,3′:9,10]cyclodeca[1,2-b]furan-9(1aH)-one], the EC50 in data set [1] (Homo sapiens, AML1, 24 h) was found to be 2.4 µM; with M9 ENL1 cell line (setting [4]) it was 1500 nM.

Take `C=C1C(=O)O[C@@H]2[C@H]3O[C@]3(C)CC/C=C(\CO)CC[C@@H]12` [MMB, Melampomagnolide B]: the EC50 in data set [1] was 20.5 µM; in data set [2] it was 24.3 µM; with M9 ENL1 cell line (setting [3]), 16000 nM.
